Measurements reported in patent US6603023B2 (priority 1996, dated 2003).
“And” between values parts separate entries of the source, which are not always exact repeats. Identical values can stand only once. Like-named read-outs stand apart in the source and are kept apart here.

Columns and labels:
CCRF-CEM/VM1 = test: cells; type: cell-based, human
Outline: (§1)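 Suspension leukemic cells (CCRF-CEM, P388 and drug-resistant sublines kept under the selecting agent) were seeded at 5×10^4 cells/mL in RPMI-1640 with 10% FBS at 37 °C. After 72 h drug exposure in duplicate, PMS-XTT was added for 4 h. Absorbance was read at 450 and 630 nm.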

CCRF-CEM/Taxol® = test: cells; type: cell-based, human
Outline: as §1

CCRF-CEM/VBL100 = test: cells; type: cell-based, human; settings: for IC50: Homo sapiens, CCRF-CEM
Outline: as §1

DC-3F/ADII = test: SRB cytotoxicity, DC-3F/ADII; type: cell-based, hamster; settings: Mesocricetus auratus, DC3F
Protocol: (§2) The DC-3F hamster lung fibroblast cell line and its actinomycin D-selected sublines (DC-3F/ADII and DC-3F/ADX) were obtained from the Memorial Sloan-Kettering Cancer Center (MSKCC).
(§3) The drug-resistant cell lines were continuously cultured in the presence of the selecting agent, AD, DX, VBL or VM to maintain the drug resistant phenotypes. […] All cells were cultured in RPMI 1640-10% FBS at 37° C. 5% CO2 (see below).
(§4) The cytotoxicity of the drug toward the monolayer cell cultures (such as DC-3F, MCF-7, SK-N-As and sublines) was determined in 96-well microtiter plates by the SRB method as described by Skehan and co-workers (Skehan, P., et al., J. Natl. Cancer Inst. 1990, 82, 1107-1112) for measuring the cellular protein content. Cultures were fixed with trichloroacetic acid and then stained for 30 min with 0.4% suforhodamine B dissolved in 1% acetic acid. Unbound dye was removed by acetic acid washes, and the protein-bound dye was extracted with an unbuffered Tris base (tris(hydroxy-methyl)aminomethane) for determination of absorbance at 570 nm in a 96-well microtiter plate reader. The experiments were carried out in duplicate. Each run entailed six to seven concentrations of the tested drugs. Data were analyzed with the median-effect plot (Chou, T.-C. & Talalay, P. T. (1984) Adv. Enzyme Regul. 22, 27-55) using a previously described computer program (Chou, J., & Chou T.-C. 1987, Dose-effect analysis with microcomputers: Quantitation of ED50, synergism, antagonism, low-dose risk, reception-ligand binding and enzyme kinetics, IBM-PC software and manual, Biosoft, Cambridge, U.K.).
(§5) Concerning Table 3, experiments were carried out using the cell lines DC-3F (parent hamster lung cells), DC-3F/ADII (moderate multidrug-resistant (MDR) cells) and DC-3F/ADX (very strong MDR cells).

[1] = test system: MDR human mammary adenocarcinoma MCF-7/Adr xenograft; test: in vivo; settings: MCF-7/Adr; i.v. infusion (order wraps over rows r16-r17)
Protocol: DMSO was used as a vehicle for epothilones. Each mouse received ≦40 μL DMSO in all experiments.
Athymic nude mice (nu/nu) were used for MX-1 and MCF-7/Adr human mammary carcinoma xenografts. Mice were obtained from Taconic Laboratory Animals and Service (Germantown, N.Y.: outbred, Swiss background).

[2] = test system: A549 Human Lung Carcinoma; test: A549 xenograft; type: in vivo, nude mice
[3] = test system: DC-3F hamster lung fibroblast cell line; test: SRB cytotoxicity, DC-3F; type: cell-based; settings: Mesocricetus auratus, DC3F, Table 3
Protocol: as §2, §3, §4

DC-3F/ADX = test: cells; type: cell-based, hamster; settings: DC3F/ADX, Table 3
Protocol: as §2, §3, §4, §5

[4] = test system: CCRF-CEM human T-cell acute lymphoblastic leukemia cell line; test: XTT cytotoxicity (cell growth inhibition), CCRF-CEM
Outline: as §1

[5] = test system: PC-3 Human Prostate Carcinoma; test: PC-3 xenograft; type: in vivo, nude mice
[6] = Homo sapiens, CCRF-CEM, 72 h, Table 1A, XTT
[7] = Homo sapiens, CCRF-CEM, Table 5, single determinations
[8] = Homo sapiens, CCRF-CEM, read-out: IC50 (mean ± of determinations, in parentheses), Table 5
[9] = Table 5, single determinations, listed as VP-16
[10] = Q2D x 3: dEpoB 30 mg/kg 18 hr i.v. infusion, Taxol 15 mg/kg 6 hr infusion, VBL 2 and VP-16 25 mg/kg i.v. inj
[11] = dEpoB 30 mg/kg 18 hr i.v. infusion, Taxol 16 mg/kg 6 hr infusion, VBL 2 and VP-16 25 mg/kg i.v. inj

COc1cc([C@@H]2c3cc4c(cc3[C@@H](O[C@@H]3O[C@@H]5CO[C@@H](C)O[C@H]5[C@H](O)[C@H]3O)[C@H]3COC(=O)[C@H]23)OCO4)cc(OC)c1O [Etoposide, etoposide]
fold resistance vs parent CCRF-CEM (CCRF-CEM/VM1; CCRF-CEM/VM1 cells): 117 fold | IC50 (CCRF-CEM/VM1; [6]): 34.4 µM | IC50 (CCRF-CEM/VM1; Homo sapiens, CCRF-CEM, Table 2, CCR-CEM/VM-1): 34.5 µM | IC50 (CCRF-CEM/VM1; [7]): 35.1 µM | IC50 (CCRF-CEM/VM1; [8]): 34.4 µM | (D)/(A) IC50 ratio (CCRF-CEM/VM1; Table 1A, CCRF-CEM/VM1 vs CCRF-CEM): 117 | relative resistance (fold) vs parent cell line (CCRF-CEM/VM1; Table 5): (117.4X) | IC50 (CCRF-CEM/VM1; [9]): 42.2 µM and 25.9 µM | IC50 (CCRF-CEM/Taxol®; Homo sapiens, CCRF-CEM, 72 h): 1.32 µM | (C)/(A) IC50 ratio (CCRF-CEM/Taxol®; Table 1A, CCRF-CEM/Taxol vs CCRF-CEM): 4.5 | Potency in parentheses relative to Epo B in CCRF-CEM cells (CCRF-CEM/VBL100; CCRF-CEM/VBL MDR cells): 1/29514 | Potency in square brackets relative to Epo B in CCRF-CEM/VBL MDR cells (CCRF-CEM/VBL100; CCRF-CEM/VBL MDR cells): 1/4919 | IC50 (CCRF-CEM/VBL100): 10.3 µM | IC50 (CCRF-CEM/VBL100; 72 h, Table 1A, XTT): 10.3 µM | IC50 (CCRF-CEM/VBL100; Table 2, CCRF-CEM/VLB): 7.39 µM | IC50 (CCRF-CEM/VBL100; read-out: IC50 (mean ± of determinations, in parentheses), Table 5): 10.3 µM | (B)/(A) IC50 ratio (CCRF-CEM/VBL100; Table 1A, CCRF-CEM/VBL100 vs CCRF-CEM): 35 | relative resistance (fold) vs parent cell line (CCRF-CEM/VBL100; Table 5): (35.3X) | IC50 (DC-3F/ADII): 0.632 µM | Therapeutic effect Rank Order [1]: dEpoB >> VP-16, | Therapeutic effect Rank Order ([2]; A549, i.v. infusion): Taxol ®, dEpoB, VBL > VP-16 | Average Body Weight (change), Day 11 [2, 10]: +0.1 g | Average Body Weight (change), Day 13 [2, 10]: -0.2 g | Average Body Weight (change), Day 15 [2, 10]: -2.2 g | Tumor Disappearance [2, 10]: 0/3 | Average Tumor Size, Day 11 ([2]; Q2D x 3: dEpoB 30 mg/kg 18 hr i.v. infusion, Taxol 15 mg/kg 6 hr infusion, VBL 2 and VP-16 25 mg/kg i.v. inj, control 96): 59 mm^3 | Average Tumor Size, Day 13 ([2]; Q2D x 3: dEpoB 30 mg/kg 18 hr i.v. infusion, Taxol 15 mg/kg 6 hr infusion, VBL 2 and VP-16 25 mg/kg i.v. inj, control 128): 150 mm^3 | Average Tumor Size, Day 15 ([2]; Q2D x 3: dEpoB 30 mg/kg 18 hr i.v. infusion, Taxol 15 mg/kg 6 hr infusion, VBL 2 and VP-16 25 mg/kg i.v. inj, control 306): 275 mm^3 | Average Tumor Size, Day 17 ([2]; Q2D x 3: dEpoB 30 mg/kg 18 hr i.v. infusion, Taxol 15 mg/kg 6 hr infusion, VBL 2 and VP-16 25 mg/kg i.v. inj, control 553): 536 mm^3 | Average Body Weight, Day 7 ([2]; initial weight, Q2D x 3: dEpoB 30 mg/kg 18 hr i.v. infusion, Taxol 15 mg/kg 6 hr infusion, VBL 2 and VP-16 25 mg/kg i.v. inj): 27.2 g | IC50 [3]: 0.0339 µM | IC50 (DC-3F/ADX): 12.1 µM | IC50 ([4]; Homo sapiens, CCRF-CEM): 0.29 µM | IC50 [4, 6]: 0.29 µM | IC50 ([4]; Homo sapiens, CCRF-CEM, Table 2): 0.221 µM | IC50 [4, 7]: 0.259 µM | IC50 [4, 8]: 0.293 µM | IC50 [4, 9]: 0.323 µM and 0.296 µM | Therapeutic effect Rank Order ([5]; PC-3, i.v. infusion (order wraps over rows r24-r25)): dEpoB >> VP-16 | Average Body Weight (change), Day 9 [5, 11]: +0.3 g | Average Body Weight (change), Day 11 [5, 11]: -0.1 g | Average Body Weight (change), Day 13 [5, 11]: -2.4 g | Average Tumor Size (TC), Day 9 [5, 11]: 1.00 TC | Average Tumor Size (TC), Day 11 [5, 11]: 1.12 TC | Average Tumor Size (TC), Day 13 [5, 11]: 0.88 TC | Tumor Disappearance [5, 11]: 0/3 | Average Body Weight, Day 5 ([5]; initial weight, dEpoB 30 mg/kg 18 hr i.v. infusion, Taxol 16 mg/kg 6 hr infusion, VBL 2 and VP-16 25 mg/kg i.v. inj): 24.9 g
